Assay results as given in publication PMC12090182, “Repurposing of the RIPK1-Selective Benzo[1,4]oxazepin-4-one Scaffold for the Development of a Type III LIMK1/2 Inhibitor” (ACS Chemical Biology, 2025).

Experiments:
Format in all cases: cell-based
Conditions in all cases: HEK-293T; 1 μM inhibitor, HEK293T cells
CDK16 = CDK16 (Homo sapiens, UniProt Q00536)
Experimental: (§1) For plate preparation, a transfection mix was prepared in white 384-well small-volume plates (Greiner, cat. no. 784075) by preplating 3 μL of 20 μL/mL FuGene HD (Promega, cat. no. E2311), diluted in an Opti-MEM medium (Gibco, cat. no. 11058-021). One μL of DNA from both DNA vector source plates of the K192 kit was added using an Echo 550 acoustic dispenser (Beckman Coulter). The mix was incubated for 30 min, and 6 μL of HEK293T cells in an Opti-MEM medium was added. The proteins were allowed to express for 20 h. After expression, Tracer K10 was added using the concentrations recommended in the K192 technical manual and a 1 μM inhibitor was added to every second well. […] Five μL of substrate solution was added to every well, and filtered luminescence was measured on a PHERAstar plate reader (BMG Labtech) equipped with a luminescence filter pair (450 nm BP filter (donor) and a 610 nm LP filter (acceptor)). For every kinase, occupancy was calculated and plotted using GraphPad Prism 10 (Table S5).

STK4 = STK4 (Homo sapiens, UniProt Q13043)
Experimental: as §1

PLK2 = PLK2 (Homo sapiens, UniProt Q9NYY3)
Experimental: as §1

MKNK2 = MKNK2 (Homo sapiens, UniProt Q9HBH9)
Experimental: as §1

HIPK3 = HIPK3 (Homo sapiens, UniProt Q9H422)
Experimental: as §1

MAPK6 = MAPK6 (Homo sapiens, UniProt Q16659)
Sequence of MAPK6 (Q16659 whole entry): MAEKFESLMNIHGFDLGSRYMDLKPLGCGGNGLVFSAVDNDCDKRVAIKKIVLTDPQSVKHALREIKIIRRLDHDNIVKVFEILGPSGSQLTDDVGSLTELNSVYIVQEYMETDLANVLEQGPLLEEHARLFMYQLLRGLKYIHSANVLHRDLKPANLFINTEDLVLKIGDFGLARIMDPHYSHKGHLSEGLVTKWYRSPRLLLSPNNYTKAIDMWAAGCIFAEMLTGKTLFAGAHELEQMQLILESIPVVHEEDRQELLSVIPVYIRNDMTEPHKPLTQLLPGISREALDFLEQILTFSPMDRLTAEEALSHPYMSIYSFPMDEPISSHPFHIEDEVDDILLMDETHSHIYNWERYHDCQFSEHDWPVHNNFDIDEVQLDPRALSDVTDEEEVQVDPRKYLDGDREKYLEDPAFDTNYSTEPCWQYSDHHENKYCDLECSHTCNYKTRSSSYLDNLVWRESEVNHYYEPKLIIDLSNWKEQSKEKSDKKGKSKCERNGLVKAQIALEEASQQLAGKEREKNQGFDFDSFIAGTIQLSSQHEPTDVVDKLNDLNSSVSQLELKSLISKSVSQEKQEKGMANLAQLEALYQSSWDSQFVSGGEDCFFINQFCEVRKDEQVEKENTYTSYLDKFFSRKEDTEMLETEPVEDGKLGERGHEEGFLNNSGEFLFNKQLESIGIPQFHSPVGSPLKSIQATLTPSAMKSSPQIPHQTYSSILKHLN
Experimental: as §1

MYLK2 = MYLK2 (Homo sapiens, UniProt Q9H1R3)
Experimental: as §1

MAST4 = MAST4 (Homo sapiens, UniProt O15021)
Experimental: as §1

CAMK2A = CAMK2A (Homo sapiens, UniProt Q9UQM7)
Experimental: as §1

MELK = MELK (Homo sapiens, UniProt Q14680)
Experimental: as §1

PRKCE = PRKCE (Homo sapiens, UniProt Q02156)
Sequence of PRKCE (Q02156 whole entry): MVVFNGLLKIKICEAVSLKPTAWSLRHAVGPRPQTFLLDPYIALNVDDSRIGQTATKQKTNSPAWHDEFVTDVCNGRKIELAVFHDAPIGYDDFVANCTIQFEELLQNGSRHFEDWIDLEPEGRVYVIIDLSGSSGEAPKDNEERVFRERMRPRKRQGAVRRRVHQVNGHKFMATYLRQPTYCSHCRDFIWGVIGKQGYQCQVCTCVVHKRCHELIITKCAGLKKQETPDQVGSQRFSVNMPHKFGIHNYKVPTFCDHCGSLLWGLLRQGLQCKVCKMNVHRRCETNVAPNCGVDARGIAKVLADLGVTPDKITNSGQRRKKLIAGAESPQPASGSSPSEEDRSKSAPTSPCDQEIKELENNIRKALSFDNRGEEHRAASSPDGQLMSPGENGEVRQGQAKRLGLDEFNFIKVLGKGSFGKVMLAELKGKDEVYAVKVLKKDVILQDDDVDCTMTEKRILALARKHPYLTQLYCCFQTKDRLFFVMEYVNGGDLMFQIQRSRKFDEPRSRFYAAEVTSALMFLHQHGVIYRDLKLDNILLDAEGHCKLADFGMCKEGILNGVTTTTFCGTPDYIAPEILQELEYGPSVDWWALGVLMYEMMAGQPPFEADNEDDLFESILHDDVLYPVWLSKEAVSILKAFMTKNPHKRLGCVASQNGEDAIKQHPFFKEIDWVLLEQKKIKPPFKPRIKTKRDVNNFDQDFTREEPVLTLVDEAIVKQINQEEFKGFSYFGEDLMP
Experimental: as §1

CDK6 = CDK6 (Homo sapiens, UniProt Q00534)
Experimental: as §1

ULK1 = ULK1 (Homo sapiens, UniProt O75385)
Experimental: as §1

CDK4 = CDK4 (Homo sapiens, UniProt P11802)
Experimental: as §1

IRAK4 = IRAK4 (Homo sapiens, UniProt Q9NWZ3)
Experimental: as §1

PAK4 = PAK4 (Homo sapiens, UniProt O96013)
Experimental: as §1

MLTK = MLTK (Homo sapiens, UniProt Q9NYL2)
Experimental: as §1

ULK3 = ULK3 (Homo sapiens, UniProt Q6PHR2)
Experimental: as §1

CSNK2A2 = CSNK2A2 (Homo sapiens, UniProt P19784)
Experimental: as §1

JAK3 = JAK3 (Homo sapiens, UniProt P52333)
Experimental: as §1

RPS6KA6 = RPS6KA6 (Homo sapiens, UniProt Q9UK32)
Experimental: as §1

RIPK1 = target: T1, RIPK1 (Homo sapiens, UniProt Q13546)
T1 construct: full-length LIMK1/2, RIPK1, BTK, and LRRK2 cloned in a frame in a NanoLuc-vector (Promega); host or cells: HEK293T
T1 sequence (Q13546 1-671): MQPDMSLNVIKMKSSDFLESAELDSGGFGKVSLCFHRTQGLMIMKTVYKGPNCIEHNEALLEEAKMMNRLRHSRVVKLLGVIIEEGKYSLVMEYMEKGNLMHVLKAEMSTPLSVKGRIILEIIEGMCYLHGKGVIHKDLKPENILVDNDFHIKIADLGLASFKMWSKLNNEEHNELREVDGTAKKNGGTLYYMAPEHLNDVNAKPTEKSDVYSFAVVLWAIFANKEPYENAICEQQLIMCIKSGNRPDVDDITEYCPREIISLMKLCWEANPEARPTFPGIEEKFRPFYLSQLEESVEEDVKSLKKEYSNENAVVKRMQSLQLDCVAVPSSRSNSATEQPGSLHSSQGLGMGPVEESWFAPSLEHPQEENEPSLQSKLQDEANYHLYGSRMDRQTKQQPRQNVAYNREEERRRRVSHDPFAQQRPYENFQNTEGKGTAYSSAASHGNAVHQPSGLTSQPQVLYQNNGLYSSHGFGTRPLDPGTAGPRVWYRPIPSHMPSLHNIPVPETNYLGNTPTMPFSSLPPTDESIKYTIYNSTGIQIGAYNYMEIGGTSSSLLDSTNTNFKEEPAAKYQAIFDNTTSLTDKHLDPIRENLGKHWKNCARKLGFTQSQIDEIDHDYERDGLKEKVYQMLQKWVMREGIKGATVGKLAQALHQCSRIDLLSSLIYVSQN
Experimental: as §1

EPHA4 = EPHA4 (Homo sapiens, UniProt P54764)
Sequence of EPHA4 (P54764 20-986): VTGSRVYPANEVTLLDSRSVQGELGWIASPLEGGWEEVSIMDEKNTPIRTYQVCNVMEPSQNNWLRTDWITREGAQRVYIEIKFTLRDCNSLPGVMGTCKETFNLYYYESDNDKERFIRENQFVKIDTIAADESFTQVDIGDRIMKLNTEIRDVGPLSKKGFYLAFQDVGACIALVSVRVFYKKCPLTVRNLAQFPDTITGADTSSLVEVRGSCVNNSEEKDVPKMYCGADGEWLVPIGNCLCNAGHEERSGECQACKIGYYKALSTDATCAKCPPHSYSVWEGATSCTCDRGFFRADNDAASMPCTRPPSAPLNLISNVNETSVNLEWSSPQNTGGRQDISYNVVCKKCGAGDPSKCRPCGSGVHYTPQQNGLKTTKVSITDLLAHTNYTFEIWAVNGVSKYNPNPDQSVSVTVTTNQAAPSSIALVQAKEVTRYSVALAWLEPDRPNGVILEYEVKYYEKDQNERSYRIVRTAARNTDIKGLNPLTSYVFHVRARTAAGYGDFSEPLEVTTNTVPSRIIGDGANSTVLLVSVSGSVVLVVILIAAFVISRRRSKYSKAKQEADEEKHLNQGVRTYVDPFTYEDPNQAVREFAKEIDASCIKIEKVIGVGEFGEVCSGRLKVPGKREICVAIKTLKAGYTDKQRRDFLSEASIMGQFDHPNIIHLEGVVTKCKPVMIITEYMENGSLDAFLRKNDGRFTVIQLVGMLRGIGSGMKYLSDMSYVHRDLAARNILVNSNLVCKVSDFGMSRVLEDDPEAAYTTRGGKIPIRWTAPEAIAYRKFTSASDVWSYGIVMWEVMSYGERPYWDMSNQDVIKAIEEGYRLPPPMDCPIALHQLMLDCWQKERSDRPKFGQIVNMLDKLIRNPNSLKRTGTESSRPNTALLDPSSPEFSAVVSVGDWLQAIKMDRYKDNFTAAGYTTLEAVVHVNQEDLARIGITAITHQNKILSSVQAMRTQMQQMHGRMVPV
Experimental: as §1

FER = FER (Homo sapiens, UniProt P16591)
Experimental: as §1

GAK = GAK (Homo sapiens, UniProt O14976)
Sequence of GAK (O14976 whole entry): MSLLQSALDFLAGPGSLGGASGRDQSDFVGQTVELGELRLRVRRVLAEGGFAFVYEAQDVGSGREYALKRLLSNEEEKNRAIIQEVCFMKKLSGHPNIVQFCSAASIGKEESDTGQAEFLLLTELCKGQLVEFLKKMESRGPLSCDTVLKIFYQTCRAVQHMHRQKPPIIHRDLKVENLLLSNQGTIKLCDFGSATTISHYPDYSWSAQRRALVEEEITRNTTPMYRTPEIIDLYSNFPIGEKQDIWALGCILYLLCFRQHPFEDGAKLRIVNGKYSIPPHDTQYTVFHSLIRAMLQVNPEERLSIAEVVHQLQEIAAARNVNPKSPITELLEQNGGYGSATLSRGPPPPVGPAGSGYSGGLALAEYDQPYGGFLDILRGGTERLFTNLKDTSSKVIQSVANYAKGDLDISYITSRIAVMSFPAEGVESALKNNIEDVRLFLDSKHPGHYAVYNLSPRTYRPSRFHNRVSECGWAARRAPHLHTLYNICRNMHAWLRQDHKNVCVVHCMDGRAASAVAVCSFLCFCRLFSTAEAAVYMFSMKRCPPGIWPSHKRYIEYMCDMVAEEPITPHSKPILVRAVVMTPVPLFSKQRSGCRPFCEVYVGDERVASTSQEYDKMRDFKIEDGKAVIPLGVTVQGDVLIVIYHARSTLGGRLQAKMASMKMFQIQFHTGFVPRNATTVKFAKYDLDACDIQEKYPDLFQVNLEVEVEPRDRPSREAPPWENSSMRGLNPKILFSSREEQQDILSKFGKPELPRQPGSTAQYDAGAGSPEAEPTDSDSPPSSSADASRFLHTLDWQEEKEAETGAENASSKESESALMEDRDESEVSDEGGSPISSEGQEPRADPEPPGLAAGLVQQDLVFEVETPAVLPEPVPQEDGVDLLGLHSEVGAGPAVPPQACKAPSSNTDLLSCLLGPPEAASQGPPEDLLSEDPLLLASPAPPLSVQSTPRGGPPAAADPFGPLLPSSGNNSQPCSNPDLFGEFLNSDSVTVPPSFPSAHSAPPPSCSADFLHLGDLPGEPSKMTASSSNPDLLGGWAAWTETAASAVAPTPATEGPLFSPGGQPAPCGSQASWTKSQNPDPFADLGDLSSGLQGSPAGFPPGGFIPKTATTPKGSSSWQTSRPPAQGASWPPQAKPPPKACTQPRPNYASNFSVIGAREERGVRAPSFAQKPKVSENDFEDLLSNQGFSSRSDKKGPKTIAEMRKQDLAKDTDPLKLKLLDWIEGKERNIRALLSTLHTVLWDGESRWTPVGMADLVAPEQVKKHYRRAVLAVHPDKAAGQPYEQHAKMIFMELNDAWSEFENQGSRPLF
Experimental: as §1

AURKA = AURKA (Homo sapiens, UniProt O14965)
Experimental: as §1

PKMYT1 = PKMYT1 (Homo sapiens, UniProt Q99640)
Sequence of PKMYT1 (Q99640 whole entry): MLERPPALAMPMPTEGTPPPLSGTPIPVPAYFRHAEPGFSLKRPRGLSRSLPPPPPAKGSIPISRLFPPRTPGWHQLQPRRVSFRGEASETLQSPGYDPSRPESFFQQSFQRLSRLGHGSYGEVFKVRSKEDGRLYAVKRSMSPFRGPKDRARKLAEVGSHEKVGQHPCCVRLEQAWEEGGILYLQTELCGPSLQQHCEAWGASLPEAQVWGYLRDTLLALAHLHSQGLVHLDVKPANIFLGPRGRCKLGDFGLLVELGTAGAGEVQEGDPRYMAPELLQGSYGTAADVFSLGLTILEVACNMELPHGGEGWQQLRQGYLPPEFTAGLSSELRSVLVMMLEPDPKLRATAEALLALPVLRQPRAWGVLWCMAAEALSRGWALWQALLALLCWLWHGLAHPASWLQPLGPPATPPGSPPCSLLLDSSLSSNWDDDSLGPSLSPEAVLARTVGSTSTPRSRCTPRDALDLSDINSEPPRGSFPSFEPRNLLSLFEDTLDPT
Experimental: as §1

Sequence of CDK16 (Q00536 whole entry): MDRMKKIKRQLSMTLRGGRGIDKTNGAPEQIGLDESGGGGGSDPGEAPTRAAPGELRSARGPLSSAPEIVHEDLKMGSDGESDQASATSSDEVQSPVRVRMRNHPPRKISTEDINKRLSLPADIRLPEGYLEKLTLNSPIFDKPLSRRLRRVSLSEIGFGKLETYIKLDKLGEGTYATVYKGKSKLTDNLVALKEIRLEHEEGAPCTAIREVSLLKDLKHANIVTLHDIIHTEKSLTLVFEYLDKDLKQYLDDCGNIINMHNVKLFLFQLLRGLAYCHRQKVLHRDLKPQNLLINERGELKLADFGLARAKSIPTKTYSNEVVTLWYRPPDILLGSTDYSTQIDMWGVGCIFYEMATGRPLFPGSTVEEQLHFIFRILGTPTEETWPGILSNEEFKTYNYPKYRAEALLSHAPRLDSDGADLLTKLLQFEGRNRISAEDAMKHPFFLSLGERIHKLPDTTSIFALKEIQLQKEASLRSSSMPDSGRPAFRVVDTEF
Sequence of CDK16 (Q8ND76 whole entry, further chain): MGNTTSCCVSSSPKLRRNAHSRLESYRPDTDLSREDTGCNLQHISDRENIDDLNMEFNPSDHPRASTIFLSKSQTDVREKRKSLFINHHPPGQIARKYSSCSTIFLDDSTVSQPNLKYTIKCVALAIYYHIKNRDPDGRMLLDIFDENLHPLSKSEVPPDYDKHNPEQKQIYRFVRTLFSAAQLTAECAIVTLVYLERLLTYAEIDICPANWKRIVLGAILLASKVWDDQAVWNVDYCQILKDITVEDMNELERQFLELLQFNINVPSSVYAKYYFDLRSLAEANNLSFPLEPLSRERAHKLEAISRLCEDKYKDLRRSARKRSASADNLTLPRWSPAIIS

## CN1C(=O)[C@@H](N2CCc3c(nn(Cc4ccccc4)c3C(N)=O)C2=O)COc2cc(Cl)ccc21 [Compound 10, (S)-2-benzyl-6-(8-chloro-5-methyl-4-oxo-2,3,4,5-tetrahydrobenzo[b][1,4]oxazepin-3-yl)-7-oxo-4,5,6,7-tetrahydro-2H-pyrazolo[3,4-c]pyridine-3-carboxamide]
CDK16
  receptor occupancy at 1 µM: -2.19%
STK4
  receptor occupancy at 1 µM: -6.3%
PLK2
  receptor occupancy at 1 µM: 2.74%
MKNK2
  receptor occupancy at 1 µM: 2.69%
HIPK3
  receptor occupancy at 1 µM: 11.8%
MAPK6
  receptor occupancy at 1 µM: -8.43%
MYLK2
  receptor occupancy at 1 µM: 4.26%
MAST4
  receptor occupancy at 1 µM: -4.29%
CAMK2A
  receptor occupancy at 1 µM: -6.57%
MELK
  receptor occupancy at 1 µM: 13.7%
PRKCE
  receptor occupancy at 1 µM: 3.9%
CDK6
  receptor occupancy at 1 µM: -16.9%
ULK1
  receptor occupancy at 1 µM: 4.3%
CDK4
  receptor occupancy at 1 µM: -9.98%
IRAK4
  receptor occupancy at 1 µM: -8.73%
PAK4
  receptor occupancy at 1 µM: 3.71%
MLTK
  receptor occupancy at 1 µM: -2.56%
ULK3
  receptor occupancy at 1 µM: 1.52%
CSNK2A2
  receptor occupancy at 1 µM: 1.08%
JAK3
  receptor occupancy at 1 µM: 4.78%
RPS6KA6
  receptor occupancy at 1 µM: 7.04%
RIPK1
  receptor occupancy at 1 µM: 78.4%
EPHA4
  receptor occupancy at 1 µM: -5.78%
FER
  receptor occupancy at 1 µM: 15.8%
GAK
  receptor occupancy at 1 µM: 0.954%
AURKA
  receptor occupancy at 1 µM: -7.12%
PKMYT1
  receptor occupancy at 1 µM: -7.45%
